From US20240417405A1, “Substituted Spiro Derivatives” (Janssen Pharmaceutica NV, priority 2021, published 2024)

biological target: T1, menin/MLL (terbium chelate-labeled menin, FITC-MBM1 peptide) (Homo sapiens, UniProt O00255, T541A); test: Menin/MLL homogenous time-resolved fluorescence (HTRF) assay; type: binding; conditions: 30 min incubation
T1 construct: Menin (a.a 1-610-6xhis tag)
T1 sequence (O00255 with tags, fused parts or gaps T541A): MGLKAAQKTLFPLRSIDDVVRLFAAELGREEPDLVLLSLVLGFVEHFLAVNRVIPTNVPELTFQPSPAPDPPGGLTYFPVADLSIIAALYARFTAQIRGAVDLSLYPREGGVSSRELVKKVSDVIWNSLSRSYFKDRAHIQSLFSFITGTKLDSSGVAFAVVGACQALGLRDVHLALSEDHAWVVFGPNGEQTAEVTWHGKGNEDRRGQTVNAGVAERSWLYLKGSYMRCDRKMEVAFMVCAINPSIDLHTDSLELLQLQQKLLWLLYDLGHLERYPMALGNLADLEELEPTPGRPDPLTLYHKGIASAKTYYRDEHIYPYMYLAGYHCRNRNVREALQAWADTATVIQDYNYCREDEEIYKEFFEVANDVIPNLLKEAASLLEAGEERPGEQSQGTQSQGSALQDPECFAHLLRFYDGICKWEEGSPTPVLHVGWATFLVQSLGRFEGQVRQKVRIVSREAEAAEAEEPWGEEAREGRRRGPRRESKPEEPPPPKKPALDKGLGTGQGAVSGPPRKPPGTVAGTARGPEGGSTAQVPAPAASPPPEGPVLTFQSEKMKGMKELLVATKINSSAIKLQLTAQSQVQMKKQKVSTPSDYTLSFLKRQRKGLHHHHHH
How it was run: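 Tb-cryptate menin (1-610, 6xHis) 200 pM + cmpd, 30 min RT; + FITC-MBM1 75 nM, 15 min RT. 40 mM Tris pH 7.5, 50 mM NaCl, 1 mM DTT, 0.05% Pluronic F-127, 0.5% DMSO. HTRF 520/490; 11-pt 4-fold from 10 μM; IC50 fit.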

Row | SMILES | IC50 [µM]
1 | CO[C@H]1CCN([C@H]2C[C@@H]([C@@H](C(C)C)N3CC4(CCN(c5ncnnc5Oc5ccc(F)cc5-c5cnncc5C5CC5)C4)C3)C2)C1 (single isomer, unassigned) [Compound 81] | 0.002
2 | CC(C)[C@H]([C@H]1C[C@@H](N2CC3(COC3)C2)C1)N1CC2(CCN(c3ncnnc3Oc3ccc(F)cc3-c3cnncc3C3CC3)C2)C1 (single isomer, unassigned) [Compound 82] | 0.0004
3 | CC(C)[C@H]([C@H]1C[C@H](N2CC3(COC3)C2)C1)N1CC2(CCN(c3ncnnc3Oc3ccc(F)cc3-c3cnncc3C3CC3)C2)C1 (single isomer, unassigned) [Compound 83] | 0.0016
4 | CC(C)[C@H]([C@H]1C[C@@H](N2CC3(CCO3)C2)C1)N1CC2(CCN(c3ncnnc3Oc3ccc(F)cc3-c3cnncc3C3CC3)C2)C1 (single isomer, unassigned) [Compound 84] | 0.0055
5 | CC(C)[C@H]([C@H]1C[C@H](N2CC3(CCO3)C2)C1)N1CC2(CCN(c3ncnnc3Oc3ccc(F)cc3-c3cnncc3C3CC3)C2)C1 (single isomer, unassigned) [Compound 84a] | 0.0215
6 | CC(C)[C@@H]([C@H]1C[C@@H](N2CCC(O)C(F)C2)C1)N1CC2(CCN(c3ncnnc3Oc3ccc(F)cc3-c3cncnc3C3CC3)C2)C1 (single isomer, unassigned) [Compound 85] | 0.0254
7 | CC(C)[C@@H]([C@H]1C[C@H](N2CCC(O)C(F)C2)C1)N1CC2(CCN(c3ncnnc3Oc3ccc(F)cc3-c3cncnc3C3CC3)C2)C1 (single isomer, unassigned) [Compound 86] | 0.0172
8 | CC1CN([C@H]2C[C@@H]([C@H](C(C)C)N3CC4(CCN(c5ncnnc5Oc5ccc(F)cc5-c5cncnc5C5CC5)C4)C3)C2)CCC1O (single isomer, unassigned) [Compound 87] | 0.0019
9 | CC(C)[C@@H]([C@H]1C[C@@H](N2CCC(O)CC2)C1)N1CC2(CCN(c3ncnnc3Oc3ccc(F)cc3-c3cncnc3C3CC3)C2)C1 (single isomer, unassigned) [Compound 88] | 0.0023
10 | CC(=O)N1CCN([C@H]2C[C@@H]([C@H](C(C)C)N3CC4(CCN(c5ncnnc5Oc5ccc(F)cc5-c5cccnc5C5CC5)C4)C3)C2)CC1 (single isomer, unassigned) [Compound 89] | 0.0002
11 | CC(C)[C@@H]([C@H]1C[C@@H](N(C)C)C1)N1CC2(CCN(c3ncnnc3Oc3ccc(F)cc3-c3cccnc3C3CC3)C2)C1 (single isomer, unassigned) [Compound 90] | 0.0001
12 | CC(C)[C@@H]([C@H]1C[C@H](N(C)C)C1)N1CC2(CCN(c3ncnnc3Oc3ccc(F)cc3-c3cccnc3C3CC3)C2)C1 (single isomer, unassigned) [Compound 91] | 0.0001
13 | CC(C)[C@@H]([C@H]1C[C@@H](N2CCN(C(=O)N(C)C)CC2)C1)N1CC2(CCN(c3ncnnc3Oc3ccc(F)cc3-c3cccnc3C3CC3)C2)C1 (single isomer, unassigned) [Compound 92] | 0.0001
14 | CC(C)[C@@H]([C@H]1C[C@@H](N2CCC[C@@H](O)C2)C1)N1CC2(CCN(c3ncnnc3Oc3ccc(F)cc3-c3cccnc3C3CC3)C2)C1 (single isomer, unassigned) [Compound 93] | 0.0001

system: MOLM14 cells; test: Proliferation assay, spheroid-like growth, MOLM14 (MLL-AF9 rearranged); type: cell-based, human; conditions: Homo sapiens, MOLM-14, 192 h, 8 days, confluence as measure of spheroid size, read-out: spheroid assay_OneTime MOLM14 IC50
How it was run: (§1)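 200 MOLM14 or 300 KO-52 cells/well, ultra-low attachment, compound dilutions, DMSO 0.3%; 8 d, 37 °C, 5% CO2. Read: live-cell imaging confluence (spheroid size) day 8. Absolute IC50, min 0%/max 100% fixed, variable slope.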

Row | SMILES | IC50 [µM]
15 | CO[C@H]1CCN([C@H]2C[C@@H]([C@@H](C(C)C)N3CC4(CCN(c5ncnnc5Oc5ccc(F)cc5-c5cnncc5C5CC5)C4)C3)C2)C1 (single isomer, unassigned) [Compound 81] | 0.28
16 | CC(C)[C@H]([C@H]1C[C@@H](N2CC3(COC3)C2)C1)N1CC2(CCN(c3ncnnc3Oc3ccc(F)cc3-c3cnncc3C3CC3)C2)C1 (single isomer, unassigned) [Compound 82] | 0.3
17 | CC(C)[C@H]([C@H]1C[C@H](N2CC3(COC3)C2)C1)N1CC2(CCN(c3ncnnc3Oc3ccc(F)cc3-c3cnncc3C3CC3)C2)C1 (single isomer, unassigned) [Compound 83] | 0.98
18 | CC(C)[C@H]([C@H]1C[C@@H](N2CC3(CCO3)C2)C1)N1CC2(CCN(c3ncnnc3Oc3ccc(F)cc3-c3cnncc3C3CC3)C2)C1 (single isomer, unassigned) [Compound 84] | 0.22
19 | CC(C)[C@H]([C@H]1C[C@H](N2CC3(CCO3)C2)C1)N1CC2(CCN(c3ncnnc3Oc3ccc(F)cc3-c3cnncc3C3CC3)C2)C1 (single isomer, unassigned) [Compound 84a] | 0.85
20 | CC(C)[C@@H]([C@H]1C[C@@H](N2CCC(O)C(F)C2)C1)N1CC2(CCN(c3ncnnc3Oc3ccc(F)cc3-c3cncnc3C3CC3)C2)C1 (single isomer, unassigned) [Compound 85] | 1.56
21 | CC(C)[C@@H]([C@H]1C[C@H](N2CCC(O)C(F)C2)C1)N1CC2(CCN(c3ncnnc3Oc3ccc(F)cc3-c3cncnc3C3CC3)C2)C1 (single isomer, unassigned) [Compound 86] | 0.65
22 | CC1CN([C@H]2C[C@@H]([C@H](C(C)C)N3CC4(CCN(c5ncnnc5Oc5ccc(F)cc5-c5cncnc5C5CC5)C4)C3)C2)CCC1O (single isomer, unassigned) [Compound 87] | 0.82
23 | CC(C)[C@@H]([C@H]1C[C@@H](N2CCC(O)CC2)C1)N1CC2(CCN(c3ncnnc3Oc3ccc(F)cc3-c3cncnc3C3CC3)C2)C1 (single isomer, unassigned) [Compound 88] | 0.41
24 | CC(=O)N1CCN([C@H]2C[C@@H]([C@H](C(C)C)N3CC4(CCN(c5ncnnc5Oc5ccc(F)cc5-c5cccnc5C5CC5)C4)C3)C2)CC1 (single isomer, unassigned) [Compound 89] | 0.02
25 | CC(C)[C@@H]([C@H]1C[C@@H](N(C)C)C1)N1CC2(CCN(c3ncnnc3Oc3ccc(F)cc3-c3cccnc3C3CC3)C2)C1 (single isomer, unassigned) [Compound 90] | 0.002
26 | CC(C)[C@@H]([C@H]1C[C@H](N(C)C)C1)N1CC2(CCN(c3ncnnc3Oc3ccc(F)cc3-c3cccnc3C3CC3)C2)C1 (single isomer, unassigned) [Compound 91] | 0.026
27 | CC(C)[C@@H]([C@H]1C[C@@H](N2CCN(C(=O)N(C)C)CC2)C1)N1CC2(CCN(c3ncnnc3Oc3ccc(F)cc3-c3cccnc3C3CC3)C2)C1 (single isomer, unassigned) [Compound 92] | 0.007
28 | CC(C)[C@@H]([C@H]1C[C@@H](N2CCC[C@@H](O)C2)C1)N1CC2(CCN(c3ncnnc3Oc3ccc(F)cc3-c3cccnc3C3CC3)C2)C1 (single isomer, unassigned) [Compound 93] | 0.003

system: KO-52 cells; test: Proliferation assay, spheroid-like growth, KO-52 (MLL wildtype control cell line); type: cell-based, human; conditions: Homo sapiens, 192 h, KO-52 control cells, 8 days, confluence as measure of spheroid size; read-out: spheroid assay_OneTime KO-52 IC50
How it was run: as §1

Row | SMILES | IC50 [µM]
29 | CO[C@H]1CCN([C@H]2C[C@@H]([C@@H](C(C)C)N3CC4(CCN(c5ncnnc5Oc5ccc(F)cc5-c5cnncc5C5CC5)C4)C3)C2)C1 (single isomer, unassigned) [Compound 81] | > 15
30 | CC(C)[C@H]([C@H]1C[C@@H](N2CC3(COC3)C2)C1)N1CC2(CCN(c3ncnnc3Oc3ccc(F)cc3-c3cnncc3C3CC3)C2)C1 (single isomer, unassigned) [Compound 82] | > 15
31 | CC(C)[C@H]([C@H]1C[C@H](N2CC3(COC3)C2)C1)N1CC2(CCN(c3ncnnc3Oc3ccc(F)cc3-c3cnncc3C3CC3)C2)C1 (single isomer, unassigned) [Compound 83] | > 15
32 | CC(C)[C@H]([C@H]1C[C@@H](N2CC3(CCO3)C2)C1)N1CC2(CCN(c3ncnnc3Oc3ccc(F)cc3-c3cnncc3C3CC3)C2)C1 (single isomer, unassigned) [Compound 84] | > 15
33 | CC(C)[C@H]([C@H]1C[C@H](N2CC3(CCO3)C2)C1)N1CC2(CCN(c3ncnnc3Oc3ccc(F)cc3-c3cnncc3C3CC3)C2)C1 (single isomer, unassigned) [Compound 84a] | > 15
34 | CC(C)[C@@H]([C@H]1C[C@@H](N2CCC(O)C(F)C2)C1)N1CC2(CCN(c3ncnnc3Oc3ccc(F)cc3-c3cncnc3C3CC3)C2)C1 (single isomer, unassigned) [Compound 85] | > 15
35 | CC(C)[C@@H]([C@H]1C[C@H](N2CCC(O)C(F)C2)C1)N1CC2(CCN(c3ncnnc3Oc3ccc(F)cc3-c3cncnc3C3CC3)C2)C1 (single isomer, unassigned) [Compound 86] | > 15
36 | CC1CN([C@H]2C[C@@H]([C@H](C(C)C)N3CC4(CCN(c5ncnnc5Oc5ccc(F)cc5-c5cncnc5C5CC5)C4)C3)C2)CCC1O (single isomer, unassigned) [Compound 87] | > 15
37 | CC(C)[C@@H]([C@H]1C[C@@H](N2CCC(O)CC2)C1)N1CC2(CCN(c3ncnnc3Oc3ccc(F)cc3-c3cncnc3C3CC3)C2)C1 (single isomer, unassigned) [Compound 88] | > 15
38 | CC(=O)N1CCN([C@H]2C[C@@H]([C@H](C(C)C)N3CC4(CCN(c5ncnnc5Oc5ccc(F)cc5-c5cccnc5C5CC5)C4)C3)C2)CC1 (single isomer, unassigned) [Compound 89] | 6.18
39 | CC(C)[C@@H]([C@H]1C[C@@H](N(C)C)C1)N1CC2(CCN(c3ncnnc3Oc3ccc(F)cc3-c3cccnc3C3CC3)C2)C1 (single isomer, unassigned) [Compound 90] | 0.54
40 | CC(C)[C@@H]([C@H]1C[C@H](N(C)C)C1)N1CC2(CCN(c3ncnnc3Oc3ccc(F)cc3-c3cccnc3C3CC3)C2)C1 (single isomer, unassigned) [Compound 91] | 1.03
41 | CC(C)[C@@H]([C@H]1C[C@@H](N2CCN(C(=O)N(C)C)CC2)C1)N1CC2(CCN(c3ncnnc3Oc3ccc(F)cc3-c3cccnc3C3CC3)C2)C1 (single isomer, unassigned) [Compound 92] | 0.78
42 | CC(C)[C@@H]([C@H]1C[C@@H](N2CCC[C@@H](O)C2)C1)N1CC2(CCN(c3ncnnc3Oc3ccc(F)cc3-c3cccnc3C3CC3)C2)C1 (single isomer, unassigned) [Compound 93] | 0.49
